Starred links: 1 amine or outer side, 2 acyl side, 3 side chain; linkers in the order of their positions; H or OH if unused. Positions of bridges follow the written chain, without caps; N, C: chain ends. Non-standard residues stand in square brackets, D forms with d. Residues, ends and D or L forms follow the SMILES beside them. Groups on a side chain read outwards from the residue. *: point of attachment. Trp(1-Me) = Cn1cc(C[C@H](N)C(=O)O)c2ccccc21; C18 diacid = O=C(O)CCCCCCCCCCCCCCCCC(=O)*; C16 diacid = O=C(O)CCCCCCCCCCCCCCC(=O)*; γGlu = O=C(O)[C@H](CCC(=O)[*:2])N[*:1]; AEEA = NCCOCCOCC(=O)O; Sar = CNCC(=O)O
Assays:
[1] = Solubility test at 10 mg/mL (visual inspection and light scattering); type: physicochemical; conditions: for Solubility, Condition 1: Acetate pH 4; for Solubility, Condition 2: Acetate pH 5; for Solubility, Condition 3: Phosphate pH 6; for Solubility, Condition 4: Phosphate pH 7; for Solubility, Condition 5: Phosphate pH 7.5
[2] = test system: classical complement pathway; assay: In vitro haemolysis assay (inhibition of classical complement pathway); type: cell-based, human; conditions: human serum, sensitized sheep red blood cells; Table 3, given as upper bounds; read-out: IC50, inhibition of hemolysis
How it was run: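 Compound dilutions preincubated 15 min at room temperature with diluted human serum (titrated per batch for 70-90% maximal haemolysis), then antibody-sensitized sheep RBC (10^7/well) added for 30 min at 37 °C in Tris/casein buffer, pH 7.4. Stopped with EDTA; haemolysis read at 405 nm; IC50 by 4PL fit.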

Structure (SMILES) | Solubility, Condition 1 [1] | Solubility, Condition 2 [1] | Solubility, Condition 3 [1] | Solubility, Condition 4 [1] | Solubility, Condition 5 [1] | IC50 [2] [nM]
CC[C@H](C)[C@@H]1NC(=O)[C@@H](NC(=O)CN(C)C(=O)[C@H](CCC(=O)O)NC(=O)[C@H](CO)NC(C)=O)CSSC[C@@H](C(=O)N(C)CC(=O)N[C@@H](CCC(=O)O)C(=O)N[C@@H](C)C(N)=O)NC(=O)[C@H](CCCNC(=N)N)NC(=O)[C@H](Cc2c[nH]cn2)NC(=O)[C@H](CCC(=O)O)NC(=O)CNC(=O)[C@H](Cc2c[nH]c3ccccc23)NC(=O)[C@H](CC(=O)O)NC(=O)[C@H](CCC(N)=O)NC(=O)[C@H](Cc2cn(C)c3ccccc23)NC1=O [Compound 81] (Ac-SE[Sar]CI[Trp(1-Me)]QDWGEHRC[Sar]EA-NH2; disulfide 4-14) | − (“−” denotes lack of solubility at the given condition, as UV absorbance at 340 nm exceeds 0.1 AU and/or it is visibly turbid or contains particles) | − (“−” denotes lack of solubility at the given condition, as UV absorbance at 340 nm exceeds 0.1 AU and/or it is visibly turbid or contains particles) | + (“+” denotes solubility at the given condition, as determined by UV absorbance being less than 0.1 AU at 340 nm and the sample being clear when manually inspected) | + (“+” denotes solubility at the given condition, as determined by UV absorbance being less than 0.1 AU at 340 nm and the sample being clear when manually inspected) | + (“+” denotes solubility at the given condition, as determined by UV absorbance being less than 0.1 AU at 340 nm and the sample being clear when manually inspected) | < 100
CC[C@H](C)[C@@H]1NC(=O)[C@@H](NC(=O)[C@H](Cc2ccccc2)NC(C)=O)CSSC[C@@H](C(=O)N[C@H](C(=O)NCC(=O)N[C@@H](C)C(=O)N[C@@H](CCC(=O)O)C(=O)N[C@@H](CO)C(=O)N[C@@H](CCCCNC(=O)COCCOCCNC(=O)COCCOCCNC(=O)CC[C@H](NC(=O)CCCCCCCCCCCCCCC(=O)O)C(=O)O)C(N)=O)[C@@H](C)O)NC(=O)[C@H](CCCNC(=N)N)NC(=O)[C@H](Cc2c[nH]cn2)NC(=O)[C@H](CCC(=O)O)NC(=O)CNC(=O)[C@H](Cc2c[nH]c3ccccc23)NC(=O)[C@H](CC(=O)O)NC(=O)[C@H](CCC(N)=O)NC(=O)[C@H](Cc2cn(C)c3ccccc23)NC1=O [Compound 102] (Ac-FCI[Trp(1-Me)]QDWGEHRCTGAESK([AEEA-AEEA-γGlu-C16 diacid])-NH2; disulfide 2-12) | − (“−” denotes lack of solubility at the given condition, as UV absorbance at 340 nm exceeds 0.1 AU and/or it is visibly turbid or contains particles) | + (“+” denotes solubility at the given condition, as determined by UV absorbance being less than 0.1 AU at 340 nm and the sample being clear when manually inspected) | + (“+” denotes solubility at the given condition, as determined by UV absorbance being less than 0.1 AU at 340 nm and the sample being clear when manually inspected) | + (“+” denotes solubility at the given condition, as determined by UV absorbance being less than 0.1 AU at 340 nm and the sample being clear when manually inspected) | + (“+” denotes solubility at the given condition, as determined by UV absorbance being less than 0.1 AU at 340 nm and the sample being clear when manually inspected) | < 100
CC[C@H](C)[C@@H]1NC(=O)[C@@H](NC(=O)[C@H](Cc2ccc(O)cc2)NC(=O)[C@H](C)NC(=O)[C@H](CO)NC(=O)CNC(=O)[C@H](CCC(=O)O)NC(C)=O)CSSC[C@@H](C(=O)N(C)CC(=O)N[C@@H](CCC(=O)O)C(N)=O)NC(=O)[C@H](CCCCNC(=O)COCCOCCNC(=O)COCCOCCNC(=O)CC[C@H](NC(=O)CCCCCCCCCCCCCCC(=O)O)C(=O)O)NC(=O)[C@H](Cc2c[nH]cn2)NC(=O)[C@H](CCC(=O)O)NC(=O)CNC(=O)[C@H](Cc2c[nH]c3ccccc23)NC(=O)[C@H](CC(=O)O)NC(=O)[C@H](CCC(N)=O)NC(=O)[C@H](Cc2cn(C)c3ccccc23)NC1=O [Compound 103, Ac-EGSAYC(1)I[1-Me-Trp]QDWGEH-[K([15-carboxy-pentadecanoyl][γGlu][Peg3][Peg3])]-C(1)[Sar]E-NH2] (Ac-EGSAYCI[Trp(1-Me)]QDWGEHK([AEEA-AEEA-γGlu-C16 diacid])C[Sar]E-NH2; disulfide 6-16) | − (“−” denotes lack of solubility at the given condition, as UV absorbance at 340 nm exceeds 0.1 AU and/or it is visibly turbid or contains particles) | + (“+” denotes solubility at the given condition, as determined by UV absorbance being less than 0.1 AU at 340 nm and the sample being clear when manually inspected) | + (“+” denotes solubility at the given condition, as determined by UV absorbance being less than 0.1 AU at 340 nm and the sample being clear when manually inspected) | + (“+” denotes solubility at the given condition, as determined by UV absorbance being less than 0.1 AU at 340 nm and the sample being clear when manually inspected) | + (“+” denotes solubility at the given condition, as determined by UV absorbance being less than 0.1 AU at 340 nm and the sample being clear when manually inspected) | < 100
CC[C@H](C)[C@@H]1NC(=O)[C@@H](NC(=O)[C@H](Cc2ccc(O)cc2)NC(=O)[C@H](CCC(=O)O)NC(=O)[C@H](CO)NC(=O)CNC(=O)[C@H](CCC(=O)O)NC(=O)CCCCCCCCCCCCCCC(=O)O)CSSC[C@@H](C(=O)N(C)CC(=O)N[C@@H](CCC(=O)O)C(N)=O)NC(=O)[C@H](CCCNC(=N)N)NC(=O)[C@H](Cc2c[nH]cn2)NC(=O)[C@H](CCC(=O)O)NC(=O)CNC(=O)[C@H](Cc2c[nH]c3ccccc23)NC(=O)[C@H](CC(=O)O)NC(=O)[C@H](CCC(N)=O)NC(=O)[C@H](Cc2cn(C)c3ccccc23)NC1=O [Compound 107] ({C16 diacid}-EGSEYCI[Trp(1-Me)]QDWGEHRC[Sar]E-NH2; disulfide 6-16) | − (“−” denotes lack of solubility at the given condition, as UV absorbance at 340 nm exceeds 0.1 AU and/or it is visibly turbid or contains particles) | − (“−” denotes lack of solubility at the given condition, as UV absorbance at 340 nm exceeds 0.1 AU and/or it is visibly turbid or contains particles) | + (“+” denotes solubility at the given condition, as determined by UV absorbance being less than 0.1 AU at 340 nm and the sample being clear when manually inspected) | + (“+” denotes solubility at the given condition, as determined by UV absorbance being less than 0.1 AU at 340 nm and the sample being clear when manually inspected) | + (“+” denotes solubility at the given condition, as determined by UV absorbance being less than 0.1 AU at 340 nm and the sample being clear when manually inspected) | < 100
CC[C@H](C)[C@@H]1NC(=O)[C@@H](NC(=O)[C@H](Cc2ccc(O)cc2)NC(=O)[C@H](CCC(=O)O)NC(=O)[C@H](CO)NC(=O)CNC(=O)[C@H](CCC(=O)O)NC(=O)CCCCCCCCCCCCCCCCC(=O)O)CSSC[C@@H](C(=O)N(C)CC(=O)N[C@@H](CCC(=O)O)C(N)=O)NC(=O)[C@H](CCCNC(=N)N)NC(=O)[C@H](Cc2c[nH]cn2)NC(=O)[C@H](CCC(=O)O)NC(=O)CNC(=O)[C@H](Cc2c[nH]c3ccccc23)NC(=O)[C@H](CC(=O)O)NC(=O)[C@H](CCC(N)=O)NC(=O)[C@H](Cc2cn(C)c3ccccc23)NC1=O [Compound 108] ({C18 diacid}-EGSEYCI[Trp(1-Me)]QDWGEHRC[Sar]E-NH2; disulfide 6-16) | − (“−” denotes lack of solubility at the given condition, as UV absorbance at 340 nm exceeds 0.1 AU and/or it is visibly turbid or contains particles) | − (“−” denotes lack of solubility at the given condition, as UV absorbance at 340 nm exceeds 0.1 AU and/or it is visibly turbid or contains particles) | + (“+” denotes solubility at the given condition, as determined by UV absorbance being less than 0.1 AU at 340 nm and the sample being clear when manually inspected) | + (“+” denotes solubility at the given condition, as determined by UV absorbance being less than 0.1 AU at 340 nm and the sample being clear when manually inspected) | + (“+” denotes solubility at the given condition, as determined by UV absorbance being less than 0.1 AU at 340 nm and the sample being clear when manually inspected) | < 500
CC[C@H](C)[C@@H]1NC(=O)[C@@H](NC(=O)[C@H](Cc2ccc(O)cc2)NC(=O)[C@H](C)NC(=O)[C@H](CO)NC(=O)CNC(=O)[C@H](CCC(=O)O)NC(C)=O)CSSC[C@@H](C(=O)N(C)CC(=O)N[C@@H](CCC(=O)O)C(=O)NCC(=O)N[C@@H](CCC(=O)O)C(=O)N[C@@H](CCCCNC(=O)CC[C@H](NC(=O)CNC(=O)CC[C@H](NC(=O)CCCCCCCCCCCCCCCCC(=O)O)C(=O)O)C(=O)O)C(N)=O)NC(=O)[C@H](CCCNC(=N)N)NC(=O)[C@H](Cc2c[nH]cn2)NC(=O)[C@H](CCC(=O)O)NC(=O)CNC(=O)[C@H](Cc2c[nH]c3ccccc23)NC(=O)[C@H](CC(=O)O)NC(=O)[C@H](CCC(N)=O)NC(=O)[C@H](Cc2cn(C)c3ccccc23)NC1=O [Compound 109] (Ac-EGSAYCI[Trp(1-Me)]QDWGEHRC[Sar]EGEK([γGlu-Gly-γGlu-C18 diacid])-NH2; disulfide 6-16) | − (“−” denotes lack of solubility at the given condition, as UV absorbance at 340 nm exceeds 0.1 AU and/or it is visibly turbid or contains particles) | + (“+” denotes solubility at the given condition, as determined by UV absorbance being less than 0.1 AU at 340 nm and the sample being clear when manually inspected) | + (“+” denotes solubility at the given condition, as determined by UV absorbance being less than 0.1 AU at 340 nm and the sample being clear when manually inspected) | + (“+” denotes solubility at the given condition, as determined by UV absorbance being less than 0.1 AU at 340 nm and the sample being clear when manually inspected) | + (“+” denotes solubility at the given condition, as determined by UV absorbance being less than 0.1 AU at 340 nm and the sample being clear when manually inspected) | < 250

From patent publication US11965039B2, “Compstatin analogues and their medical uses” (priority 2018, dated 2024)
